# What was measured:
# [1] = tested on: erythrocytes; assay: Search for ingredients capable of preventing lipoperoxidation of erythrocytes
# [2] = human, in vivo
# Protocol: Blood (12 mL) of a subject after the subject had fasted for 12 hours was collected using EDTA. Blood was centrifuged (1000 g, 10 minutes, 4° C.), so that 6 mL of erythrocytes was obtained. To wash erythrocytes, 5-fold volume (30 mL) of physiological phosphate buffer (pH 8.0) was added and then centrifugation was carried out (2300 g, 10 minutes, 4° C.), thereby removing supernatants. This procedure was repeated 3 times, so that 4 mL of packed cells (washed erythrocytes) was obtained. • 1-2. Extraction of Carotenoid from Erythrocytes and Quantitative Determination Thereof
# Two (2) mL of water was added to 2 mL of packed cells (washed erythrocytes) for hemolysis of erythrocytes. […] Fifty (50) μL of the solution was subjected to the following UV-HPLC analysis, so that erythrocyte carotenoid was quantitatively determined. […]
# To examine whether the ingested xanthophyll would be actually transferred to erythrocytes so as to suppress accumulation of peroxidized phospholipids, lutein that exists at the highest concentration among human erythrocyte xanthophyll members was administered to 6 normal subjects (3 male subjects and 3 female subjects) for 4 weeks. […] Erythrocytes were separated from the thus obtained blood and then the concentration of erythrocyte lutein and the peroxidized phospholipid level were measured. […]
# [3] = tested on: peroxidized phospholipids in erythrocytes; assay: Erythrocyte peroxidized phospholipid level (PCOOH, PEOOH) after oral ingestion, by CL-HPLC; format: in vivo, human; settings: within 4 weeks after the start of ingestion, lutein 9.7 mg/day; 6 normal subjects
# Protocol: Packed cells (washed erythrocytes, 1.5 mL) prepared in a manner similar to that in 1-1 of Example 1 were added to a 50-mL screw cap glass centrifugation tube and then 1.5 mL of a 0.1 mM EDTA-2Na aqueous solution was added, followed by gentle agitation. The solution was allowed to stand in ice for 15 minutes and then 15 mL of isopropanol was added, followed by gentle agitation. The solution was allowed to stand for 30 minutes in ice and then 15 mL of chloroform was added. After vortexing, the solution was allowed to stand for 30 minutes in ice and then centrifuged (1000 g, 10 minutes, 4° C.). […] Solvent removal was carried out under nitrogen and then the total lipid level was measured by a gravimetric method. […]
# Peroxidized phospholipids (phosphatidyl choline hydroperoxide (PCOOH) and phosphatidylethanolamine hydroperoxide (PEOOH)) in erythrocytes were measured by chemiluminescence-high performance liquid chromatography (CL-HPLC). […] After separation of PCOOH and PEOOH from other lipid components by HPLC, PCOOH and PEOOH are reacted with a luminescence reagent and then hydroperoxide-group-derived chemiluminescence is detected and quantitatively determined. Specifically, the above obtained chloroform/methanol (2:1, v/v) solution (40 μL) of total erythrocyte lipids was subjected to CL-HPLC and then peroxidized phospholipids were quantitatively determined. […]
smiles,measurement,setting,value
Cc1c(C)c2c(c(C)c1O)CC[C@@](C)(CCC[C@H](C)CCC[C@H](C)CCCC(C)C)O2 [α-tocopherol],prevention of lipoperoxidation of erythrocytes,[1],has no such effects
CC1=C(/C=C/C(C)=C/C=C/C(C)=C/C=C/C=C(C)/C=C/C=C(C)/C=C/C2=C(C)C[C@@H](O)CC2(C)C)C(C)(C)C[C@H](O)C1 [zeaxanthin],"concentration of erythrocyte zeaxanthin, average",[2],52 pmol/g hemoglobin
CC1=C[C@H](O)CC(C)(C)[C@H]1/C=C/C(C)=C/C=C/C(C)=C/C=C/C=C(C)/C=C/C=C(C)/C=C/C1=C(C)C[C@@H](O)CC1(C)C [lutein],peroxidized phospholipid level in erythrocytes compared with the level before the start of ingestion,[3],significantly decreased
